According to ChEMBL document CHEMBL1139575, “Discovery and synthesis of a novel and selective drug-like P2X(1) antagonist” (Bioorg Med Chem Lett, 2005):

How the values were obtained:
[1] = molecular target: T1, P2X purinoceptor 3 (Homo sapiens, UniProt P56373); assay: Inhibitory concentration against human P2X purinoceptor 3 (hP2X3) expressed in CHO-K1 cells; assay type: functional, cell-based
T1 sequence (P56373 whole entry): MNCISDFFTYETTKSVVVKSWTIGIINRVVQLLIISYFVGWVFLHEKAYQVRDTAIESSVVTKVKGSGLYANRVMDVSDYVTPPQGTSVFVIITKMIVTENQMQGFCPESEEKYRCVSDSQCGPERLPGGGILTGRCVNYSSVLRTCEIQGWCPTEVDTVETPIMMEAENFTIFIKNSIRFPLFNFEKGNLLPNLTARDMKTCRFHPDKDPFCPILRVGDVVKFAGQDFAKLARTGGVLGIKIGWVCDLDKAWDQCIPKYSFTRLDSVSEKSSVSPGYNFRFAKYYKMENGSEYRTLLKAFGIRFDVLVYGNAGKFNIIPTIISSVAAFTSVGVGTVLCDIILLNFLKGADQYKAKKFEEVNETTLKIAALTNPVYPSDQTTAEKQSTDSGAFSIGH

[2] = molecular target: T2, P2X purinoceptor 2 (Homo sapiens, UniProt Q9UBL9); assay: Inhibitory concentration against human P2X purinoceptor 2 (hP2X2) expressed in 1321N1 astrocytoma cells; assay type: functional, cell-based
T2 sequence (Q9UBL9 whole entry): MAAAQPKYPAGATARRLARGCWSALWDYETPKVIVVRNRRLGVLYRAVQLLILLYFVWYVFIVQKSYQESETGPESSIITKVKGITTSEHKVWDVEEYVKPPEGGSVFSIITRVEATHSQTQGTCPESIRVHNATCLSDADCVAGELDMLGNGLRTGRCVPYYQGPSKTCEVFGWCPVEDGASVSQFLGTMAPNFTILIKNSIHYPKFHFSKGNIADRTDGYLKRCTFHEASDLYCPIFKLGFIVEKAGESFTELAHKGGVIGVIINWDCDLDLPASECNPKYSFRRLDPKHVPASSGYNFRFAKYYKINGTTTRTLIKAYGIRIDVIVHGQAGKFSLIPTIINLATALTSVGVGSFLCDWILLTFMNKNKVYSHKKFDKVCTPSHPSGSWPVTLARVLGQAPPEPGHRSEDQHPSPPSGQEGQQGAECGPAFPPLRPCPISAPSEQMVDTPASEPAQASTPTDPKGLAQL

[3] = molecular target: T3, P2X purinoceptor 1 (Homo sapiens, UniProt P51575); assay: Inhibitory concentration against human P2X purinoceptor 1 (hP2X1) expressed in CHO-K1 cells; assay type: functional, cell-based
T3 sequence (P51575 whole entry): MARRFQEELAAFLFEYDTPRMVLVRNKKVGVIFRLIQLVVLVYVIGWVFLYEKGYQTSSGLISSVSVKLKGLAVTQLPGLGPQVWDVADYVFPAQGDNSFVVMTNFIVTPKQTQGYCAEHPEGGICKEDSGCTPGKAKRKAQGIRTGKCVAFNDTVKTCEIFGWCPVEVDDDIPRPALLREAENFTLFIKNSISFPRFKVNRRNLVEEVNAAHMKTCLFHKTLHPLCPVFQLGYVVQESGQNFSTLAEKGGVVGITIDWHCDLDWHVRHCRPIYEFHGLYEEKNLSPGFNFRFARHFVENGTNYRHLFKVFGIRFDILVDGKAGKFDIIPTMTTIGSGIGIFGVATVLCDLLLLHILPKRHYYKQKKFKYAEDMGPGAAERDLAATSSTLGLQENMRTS

[4] = Inhibitory concentration against P2X purinoceptor 2/3 expressed in 1321N1 astrocytoma cells; assay type: functional, cell-based, Homo sapiens

IC50 [1]: > 100 µM
IC50 [2]: > 100 µM
IC50 [3]: 3 µM
IC50 [4]: > 100 µM
SMILES: O=C(N[C@H](Cc1cscn1)C(=O)N[C@@H](CC1CCCCC1)[C@@H](O)[C@@H](O)C1CC1)c1nc2ccccc2[nH]1
